Experimental data from PubChem BioAssay AID1329 (NMMLSC, 2008).
Activity calls are given as the source filed them. The rule behind the calls is not given here.

These molecules were tested against Induced myeloid leukemia cell differentiation protein Mcl-1 (Homo sapiens) (UniProt Q07820) (assay: Mcl-1/Bim interaction regulators – biochemical, bead-based flow cytometry, multiplexed, human, dose response (AID 1329)). Settings: Bim peptide-Mcl-1 binding, MCF.
Induced myeloid leukemia cell differentiation protein Mcl-1 (Homo sapiens), sequence (Q07820 whole entry, looked up): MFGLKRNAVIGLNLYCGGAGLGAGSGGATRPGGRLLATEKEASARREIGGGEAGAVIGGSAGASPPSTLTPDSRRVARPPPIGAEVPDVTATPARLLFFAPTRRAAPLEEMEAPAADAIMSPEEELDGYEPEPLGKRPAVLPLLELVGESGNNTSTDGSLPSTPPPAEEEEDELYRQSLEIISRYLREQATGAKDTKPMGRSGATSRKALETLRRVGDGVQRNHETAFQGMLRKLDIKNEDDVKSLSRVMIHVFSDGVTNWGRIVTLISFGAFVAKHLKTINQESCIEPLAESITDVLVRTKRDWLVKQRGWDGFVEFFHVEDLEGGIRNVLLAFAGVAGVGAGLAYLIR
`CC(=O)c1ccc2c(c1)C1C=CCC1C(c1ccncc1)N2` (stereo not drawn) was tested, and the percent span was “inactive”. `COc1ccc(C)cc1Nc1ccc(C(=O)O)cc1[N+](=O)[O-]` was tested, and the percent span was “inactive”. For `BrC(=C\c1ccccc1)/C=N/N1CCN(c2ccccc2)CC1`, the percent span was “inactive”. For `C/C(=N/NC(=O)c1cc(O)c(O)c(O)c1)c1ccc([N+](=O)[O-])cc1`, the percent span was “inactive”. `COc1ccc(NC(=O)c2ccco2)cc1NC(=O)c1ccco1` was tested, and the percent span was “inactive”. In the case of `CCN1CCN(c2ccc(NC(=O)c3ccc4c(c3)[nH]c(=O)n4Cc3ccc(OC)cc3)cc2)CC1`, the percent span is reported as “inactive”. `O=C(O)CC/C(=C\c1cc([N+](=O)[O-])ccc1Cl)c1nc2ccccc2s1` was tested, and the percent span was “inactive”. `COc1ccc(CN(C)CC(=O)NC(C)c2ccccc2)c(OC)c1` (stereo not drawn) was tested, and the percent span was “inactive”. For `Cc1ccc(N=c2ssnc2Cl)cc1`, the percent span was “inactive”. With `Cc1cc(C)n(CC(=O)N/N=C/c2cccc([N+](=O)[O-])c2)n1` the percent span was “inactive”. For `CCOc1cc(/C=N/NC(N)=O)ccc1OCC(=O)Nc1ccc(C)c(C)c1`, the percent span was “inactive”. For `CN(Cc1ccccc1)C(=O)c1[nH]cnc1C(=O)N[C@@H](CCCCNC(=O)OC(C)(C)C)C(=O)OC(C)(C)C`, the percent span was “inactive”. With `Cc1ccc(C2=N/C(=C/c3cccs3)C(=O)N2Nc2ccccc2)cc1` the percent span was “inactive”. With `CCC(=O)OCCNc1cc(Sc2nc3ccccc3s2)c2nonc2c1[N+](=O)[O-]` the percent span was “inactive”. For `O=c1[nH]c(SCc2nc3ccccc3c(=O)n2-c2ccccc2C(F)(F)F)nc2ccccc12`, the percent span was “inactive”. For `Cc1ccc(-c2nnc(Cc3ccc(Cl)cc3)o2)cc1`, the percent span was “inactive”. For `CC(=O)OCCNc1cc(Sc2nc3ccccc3[nH]2)c2nonc2c1[N+](=O)[O-]`, the percent span was “inactive”. In the case of `O=C(COCC(=O)NCc1ccccc1)NCc1ccccc1`, the percent span is reported as “inactive”. In the case of `CCN(CC)c1ccc(NC2=C(Cl)C(=O)c3ccccc3C2=O)cc1`, the percent span is reported as “inactive”. `c1cncc(-c2nnc3n2N=C(c2cccs2)CS3)c1` was tested, and the percent span was “inactive”. In the case of `COc1ccc(-n2cc(-c3ccc(OC)c(OC)c3)[nH]c2=S)cc1`, the percent span is reported as “inactive”. `CCc1nnc(NS(=O)(=O)c2ccc(N=CC3=C(O)CC(C)(C)CC3=O)cc2)s1` was tested, and the percent span was “inactive”. In the case of `COC(=O)CCC(=O)Nc1sc(Cc2ccccc2)c(C)c1C(N)=O`, the percent span is reported as “inactive”. For `CC1CC2=C(NC(=S)NC2c2ccccc2F)/C(=C/c2ccccc2F)C1` (stereo not drawn), the percent span was “inactive”. In the case of `O=C1C(Cl)=C(Nc2ccccc2O)C(=O)N1c1ccccc1`, the percent span is reported as “inactive”. `COc1ccc(-c2csc(NC(=O)/C(N=Nc3ccccc3)=C(\C)O)n2)cc1` was tested, and the percent span was “inactive”. In the case of `Cc1cccc(-n2c(-c3ccncc3)n[nH]c2=S)c1`, the percent span is reported as “inactive”. In the case of `CC(C)CCN1CCN(Cc2cccc3cccnc23)CC1CCO` (stereo not drawn), the percent span is reported as “inactive”. In the case of `CCN1C(=O)/C(=C\C=C2/C=CC=CN2CC)SC1=S`, the percent span is reported as “inactive”. With `O=C(Cn1cncc1-c1ccc([N+](=O)[O-])cc1)Nc1ccccc1F` the percent span was “inactive”. In the case of `COc1cccc(C(=O)/C=C/Nc2ccc(S(=O)(=O)Nc3onc(C)c3C)cc2)c1`, the percent span is reported as “inactive”. `CN1CCS/C1=C/C=C1/SC(=S)N(Cc2ccccc2)C1=O` was tested, and the percent span was “inactive”. For `COc1ccc2c3c(cccc13)N(C)N=C2C`, the percent span was “inactive”. In the case of `COCCN=c1scc(-c2ccco2)n1/N=C/c1ccc(O)c(O)c1O`, the percent span is reported as “inactive”. For `CCN1/C(=C\c2ccc3cc(C)ccc3[n+]2CC)Sc2cc(C)c(C)cc21`, the percent span was “inactive”. `Oc1ccc(C=NCC2COc3ccccc3O2)cc1` (stereo not drawn) was tested, and the percent span was “inactive”. With `CN(C)[C@@H]1C(=O)C(C(=O)NCN2CCCC2)=C(O)[C@@]2(O)C(=O)C3=C(O)c4c(O)cccc4[C@@](C)(O)C3CC12` (stereo partly drawn) the percent span was “inactive”. `COc1ccc2nc(C)cc(SCC(=O)N/N=C/c3ccc(O)cc3O)c2c1` was tested, and the percent span was “inactive”. For `O=C(N/N=C/c1ccncc1)c1cccc(NC(=O)c2ccccc2Cl)c1`, the percent span was “inactive”. For `CC(C)C(=O)N1CCN(c2ccc([N+](=O)[O-])cc2Cl)CC1`, the percent span was “inactive”. For `COC(=O)CCC(=O)Nc1sc(C)c(C)c1C(N)=O`, the percent span was “inactive”. With `Cc1cc(C)c[n+](-c2nc3ccccc3nc2C(=C=[N-])C#N)c1` the percent span was “inactive”. With `CCOC(=O)CSC1=NC(=O)/C(=C/c2ccc(OC)cc2)S1` the percent span was “inactive”. For `O=[N+]([O-])c1ccc(N/N=C/c2ccc(O)c(O)c2O)c(S(=O)(=O)N2CCOCC2)c1`, the percent span was “inactive”. In the case of `COc1ccc(NC(=O)COc2ncnc3ccccc23)cc1S(=O)(=O)N1CCOCC1`, the percent span is reported as “inactive”. For `Cc1ccc2nc3c(cc(C(N)=S)c(=N)n3CCCOC(C)C)c(=O)n2c1`, the percent span was “inactive”. `Cc1cc(C)c2nc3nc(C)cc(C)c3c(N)c2c1` was tested, and the percent span was “inactive”. `CCNCc1cc(Br)c(OCC(=O)Nc2ccccc2)c(OC)c1` was tested, and the percent span was “inactive”. `COc1cc(/C=C2\CC/C(=C\c3cc(OC)c(O)c(OC)c3)C2=O)cc(OC)c1O` was tested, and the percent span was “inactive”. `CN(C)c1ccc(C=C2C(=O)NC(=O)NC2=O)cc1[N+](=O)[O-]` was tested, and the percent span was “inactive”. `CC1(C)Cc2c(ccc3ccccc23)/C(=C/C(=O)N2CCCCC2)N1` was tested, and the percent span was “inactive”. With `Cc1ccc(-c2cc(C(=O)Nc3cc(C(=O)O)ccc3C)c3ccccc3n2)cc1` the percent span was “inactive”. With `O=C(NCC1CCCO1)c1ccc2c(=O)n(-c3ccc(F)cc3)c(=S)[nH]c2c1` (stereo not drawn) the percent span was “inactive”. `CCc1cccc(CC)c1NC(=S)N1CCn2cccc2C1c1cccnc1` (stereo not drawn) was tested, and the percent span was “inactive”. `CCN(CC)c1ccc(-c2nn3c(-c4ccccc4OC)nnc3s2)cc1` was tested, and the percent span was “inactive”. `O=C1c2ccccc2C(=O)N1c1cccc2cccnc12` was tested, and the percent span was “inactive”. In the case of `COc1ccc(-n2c(SCC(=O)Nc3ccc(C(=O)O)cc3)nnc2-c2cccs2)cc1`, the percent span is reported as “inactive”. In the case of `O=c1nc2c(O)cccn2c2c1c(=O)[nH]c1ccccc12`, the percent span is reported as “inactive”. In the case of `Cc1onc(-c2ccccc2)c1C(=O)Nc1nnc(COc2ccc(Cl)cc2)s1`, the percent span is reported as “inactive”. In the case of `COc1cc2c(cc1OC)C(c1ccccc1F)OC(=O)C2` (stereo not drawn), the percent span is reported as “inactive”. With `Clc1nssc1=Nc1ccc(Br)cc1` the percent span was “inactive”. `FC(F)(F)c1ccc2c(c1)C1C=CCC1C(c1ccncc1)N2` (stereo not drawn) was tested, and the percent span was “inactive”. In the case of `COc1ccc(NC(=O)c2c(F)cccc2F)cc1S(=O)(=O)Nc1ccc(Br)cc1`, the percent span is reported as “inactive”. In the case of `COc1ccccc1Nc1nc(-c2c(C)nc3ncccn23)cs1`, the percent span is reported as “inactive”. With `Cc1cc(-c2csc(N)n2)c(C)n1CCc1ccccc1` the percent span was “inactive”. With `Cc1ccc(NN2C(=O)C=CC2=O)cc1` the percent span was “inactive”. For `Nc1ccc(C2=Nc3cccc4cccc(c34)N2)cc1`, the percent span was “inactive”. With `Cc1c(N=C2C=CC(=O)c3ccccc32)c(=O)n(-c2ccccc2)n1C` the percent span was “inactive”. In the case of `COc1cccc2c(SCC(=O)N/N=C/c3ccccc3)cc(C)nc12`, the percent span is reported as “inactive”. `CC(C)CN1C(=O)/C(=C/c2ccco2)NC1=S` was tested, and the percent span was “inactive”. In the case of `COc1ccc(C(=O)Nc2ccc(C(=O)OCC(=O)c3cccc4ccccc34)cc2)cc1`, the percent span is reported as “inactive”. For `Cc1noc(C)c1CN1C(=O)NC(Cc2ccccc2)(Cc2ccccc2)C1=O`, the percent span was “inactive”. In the case of `COc1ccc(NS(=O)(=O)c2cc(NC(=O)c3ccc(C)o3)ccc2N2CCCCC2)cc1`, the percent span is reported as “inactive”. In the case of `O=C1C=C(Nc2ccccc2)C(=O)c2ccccc21`, the percent span is reported as “inactive”. In the case of `O=C1NC(=S)S/C1=C/c1ccc(N2CCOCC2)o1`, the percent span is reported as “inactive”. `COc1ccccc1Cn1nnc2c(=O)[nH]c(C3CCN(C(=O)c4ccc(C)cc4)CC3)nc21` was tested, and the percent span was “inactive”. `CN1CCN(c2ccc(N)cc2)CC1` was tested, and the percent span was “inactive”. For `S=C1NC2=C(CCC/C2=C\c2ccccc2)C(c2ccccc2)N1` (stereo not drawn), the percent span was “inactive”. With `CC[n+]1c(/C=C/C=C/N(C(C)=O)c2ccccc2)sc2ccccc21` the percent span was “inactive”. `CC(=O)NC(=O)Nc1sc(=S)n(C)c1C` was tested, and the percent span was “inactive”. `CCOC(=O)c1ccc(N=c2ssnc2Cl)cc1` was tested, and the percent span was “inactive”. In the case of `CC(C)c1ccc(/C=N/NC(=O)c2ccccc2Cl)cc1`, the percent span is reported as “inactive”. With `COc1ccc2nc(C)cc(SCC(=O)N/N=C/c3ccc(O)c(O)c3)c2c1` the percent span was “inactive”. In the case of `CCOc1ccc(CNc2ccc(N3CCCC3)cc2)cc1`, the percent span is reported as “inactive”. In the case of `Cn1c(N)c(C(=O)COC(=O)c2cc(-c3ccco3)nc3ccccc23)c(=O)n(C)c1=O`, the percent span is reported as “inactive”. With `Cc1cc(-c2csc(N)n2)c(C)n1C` the percent span was “inactive”. In the case of `Cc1ccnc(NS(=O)(=O)c2ccc(NS(=O)(=O)c3cccs3)cc2)n1`, the percent span is reported as “inactive”. With `Nc1ccc(Nc2nc(-c3ccncc3)cs2)cc1` the percent span was “inactive”. `CC1N(C)c2cccc3cccc(c23)N1C` was tested, and the percent span was “inactive”. For `CCOc1cc(S(=O)(=O)Nc2ccccn2)ccc1F`, the percent span was “inactive”. With `COCc1cc(CN2CCCC(CNC(=O)c3ccc(F)cc3)C2)ccc1OC` (stereo not drawn) the percent span was “inactive”. In the case of `Cc1ccc(NC2=C(Cl)C(=O)c3ccccc3C2=O)cc1`, the percent span is reported as “inactive”. In the case of `Cc1ccc(C)c(/C=C/C(=O)c2ccccc(=O)c2O)c1`, the percent span is reported as “inactive”. With `CN(C)C(=O)N1CCC(C(=O)NC2CCCCCCC2)CC1` the percent span was “inactive”. In the case of `O=C(N/N=C/c1ccc(O)c(O)c1O)/C(=C/c1ccc([N+](=O)[O-])cc1)NC(=O)c1ccccc1`, the percent span is reported as “inactive”. In the case of `CCOC(=O)/C(=C\c1cccc(O)c1)c1nc2sc(C)c(C)c2c(=O)[nH]1`, the percent span is reported as “inactive”. With `Cc1ccc(C)n1-c1cccc(C(=O)O)c1` the percent span was “inactive”. In the case of `Cc1ccc(/C=N/N(C)C2=NS(=O)(=O)c3ccccc32)o1`, the percent span is reported as “inactive”. `Cc1nn(-c2ccc(Cl)c(Cl)c2)c(C)c1C(=O)O` was tested, and the percent span was “inactive”. For `CNC(=O)/C(C#N)=C/c1c(N(Cc2ccccc2)Cc2ccccc2)nc2c(C)cccn2c1=O`, the percent span was “inactive”. With `OC(COc1ccc2ccccc2c1)CN1CCCC1` (stereo not drawn) the percent span was “inactive”. With `CCN(CC)S(=O)(=O)c1cccc(C(=O)N/N=C/c2ccc(O)c(O)c2O)c1` the percent span was “inactive”. In the case of `S=C(Nc1ccccc1)N1CCn2cccc2C1c1cccnc1` (stereo not drawn), the percent span is reported as “inactive”.
